Measured values published in the NIST ThermoML archive (doi:10.1021/je025651k).

Experiments:
[1] = refractive index (Na D-line) (dimensionless); conditions: 298.15 K, 101.33 kPa, Liquid
[2] = Liquid; for mass density: 298.15 K, 101.33 kPa

CCC(O)CC [3-pentanol]
Conditions	mass density [kg/m3]	refractive index	vapor or sublimation pressure [kPa]
[1], Abbe refractometer	–	1.4087	–
[2], 293.8 K	–	–	0.84
[2], 300.8 K	–	–	1.33
[2], 308 K	–	–	2.11
[2], 315.4 K	–	–	3.35
[2], 323 K	–	–	5.31
[2], 331.1 K	–	–	8.41
[2], 339.8 K	–	–	13.33
[2], 349.3 K	–	–	21.13
[2], 359.4 K	–	–	33.49
[2], 370.5 K	–	–	53.08
[2], 382.9 K	–	–	84.13
[2], 388.38 K	–	–	101.32
[2], 388.7 K	–	–	101.32
[2], vibrating tube	815.5	–	–

CCCC(C)=O [pentan-2-one]
Conditions	mass density [kg/m3]	refractive index	vapor or sublimation pressure [kPa]
[1], Abbe refractometer	–	1.3881	–
[2], 329.8 K	–	–	20.44
[2], 336.3 K	–	–	26.55
[2], 342.1 K	–	–	33.04
[2], 347.2 K	–	–	39.99
[2], 351.5 K	–	–	46.57
[2], 355.5 K	–	–	53.47
[2], 358.9 K	–	–	59.95
[2], 362 K	–	–	66.61
[2], 365 K	–	–	73.28
[2], 367.7 K	–	–	79.91
[2], 370.3 K	–	–	86.76
[2], 372.6 K	–	–	93.11
[2], 375 K	–	–	100.06
[2], 375.09 K	–	–	101.32
[2], 377.2 K	–	–	106.83
[2], 379.3 K	–	–	113.61
[2], 381.2 K	–	–	120.11
[2], 383 K	–	–	126.54
[2], 384.8 K	–	–	133.92
[2], vibrating tube	801.47	–	–

CCC(=O)CC [pentan-3-one]
Conditions	mass density [kg/m3]	refractive index	vapor or sublimation pressure [kPa]
[1], Standard Abbe refractometry	–	1.39	–
[2], 290 K	–	–	3.42
[2], 309.9 K	–	–	9.21
[2], 320 K	–	–	14.22
[2], 330.6 K	–	–	22.33
[2], 341.4 K	–	–	33.64
[2], 350.4 K	–	–	46.5
[2], 361.3 K	–	–	66.6
[2], 367.5 K	–	–	82.09
[2], 371 K	–	–	90.18
[2], 371.5 K	–	–	91.82
[2], 374.75 K	–	–	101.32
[2], 375.2 K	–	–	102.52
[2], Vibrating tube method	809.43	–	–
